{"source": "patent US20250222116A1", "about": "“PARP-1 DEGRADATION AGENT AND USE THEREOF” (XIZANG HAISCO PHARMACEUTICAL CO., LTD., priority 2021, published 2025)", "key": {"PARP7": {"molecular_target": "PARP7 (Homo sapiens (Human), UniProt Q7Z3E1)", "sequence (Q7Z3E1 whole entry)": "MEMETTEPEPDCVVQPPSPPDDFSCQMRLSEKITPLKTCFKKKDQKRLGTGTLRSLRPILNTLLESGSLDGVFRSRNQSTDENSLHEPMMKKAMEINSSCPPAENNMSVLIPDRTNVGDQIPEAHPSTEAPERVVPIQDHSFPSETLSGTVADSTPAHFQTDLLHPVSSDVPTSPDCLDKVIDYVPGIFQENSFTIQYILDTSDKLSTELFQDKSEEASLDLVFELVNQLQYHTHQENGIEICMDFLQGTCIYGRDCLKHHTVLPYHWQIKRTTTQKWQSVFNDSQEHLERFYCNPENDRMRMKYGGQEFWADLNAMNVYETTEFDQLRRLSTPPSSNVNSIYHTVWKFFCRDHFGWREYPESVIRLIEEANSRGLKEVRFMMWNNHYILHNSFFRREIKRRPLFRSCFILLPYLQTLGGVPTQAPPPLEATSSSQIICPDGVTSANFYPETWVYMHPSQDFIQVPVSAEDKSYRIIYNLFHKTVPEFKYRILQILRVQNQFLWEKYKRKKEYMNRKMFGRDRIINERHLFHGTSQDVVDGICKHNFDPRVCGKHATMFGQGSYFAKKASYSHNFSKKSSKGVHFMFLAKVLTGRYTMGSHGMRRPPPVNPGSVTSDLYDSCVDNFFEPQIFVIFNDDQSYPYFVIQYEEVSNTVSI", "experiment": "PARP7 enzyme activity inhibition (chemiluminescence kit)", "type": "biochemical", "protocol": "(§1) PARP1, PARP2 and PARP7 chemical […] detection kits were all purchased from BPS Bioscience. The histone solution in the kit was diluted 5× with 1×PBS, and 25 μL of the diluted histone solution was added to a microwell plate and incubated overnight at 4° C. After the incubation was completed, the plate was washed three times with PBST (0.05% Tween-20). 25 μL of a blocking solution was added to the microwell plate and incubated at 25° C. for 90 minutes. After the incubation was completed, the plate was washed three times with PBST. 2.5 μL of compounds at different concentrations diluted in test buffer and 5 μL of 2.5× substrate mixed solution were added to the microwell plate. PARP1, PARP2 and PARP7 enzymes were diluted to 0.33, 0.23 and 5.00 ng/μL, respectively, 5 μL of the diluent was added to the microwell plate, and the reaction system was incubated at 25° C. for 60 minutes. After the incubation was completed, the plate was washed three times with PBST. […] ELISA ECL substrate A and substrate B were mixed at a ratio of 1:1 (v/v), 25 μL of the mixture was added to the microwell plate, and the chemiluminescence value was read using a BMG microplate reader.\n(§2) Curve fitting was performed by four parameters (log(inhibitor) vs. response−Variable slope) using GraphPad Prism software, and the IC50 value was calculated."}, "PARP2 [1]": {"molecular_target": "T1, PARP2 (Homo sapiens (Human), UniProt Q9UGN5)", "T1 sequence (Q9UGN5 whole entry)": "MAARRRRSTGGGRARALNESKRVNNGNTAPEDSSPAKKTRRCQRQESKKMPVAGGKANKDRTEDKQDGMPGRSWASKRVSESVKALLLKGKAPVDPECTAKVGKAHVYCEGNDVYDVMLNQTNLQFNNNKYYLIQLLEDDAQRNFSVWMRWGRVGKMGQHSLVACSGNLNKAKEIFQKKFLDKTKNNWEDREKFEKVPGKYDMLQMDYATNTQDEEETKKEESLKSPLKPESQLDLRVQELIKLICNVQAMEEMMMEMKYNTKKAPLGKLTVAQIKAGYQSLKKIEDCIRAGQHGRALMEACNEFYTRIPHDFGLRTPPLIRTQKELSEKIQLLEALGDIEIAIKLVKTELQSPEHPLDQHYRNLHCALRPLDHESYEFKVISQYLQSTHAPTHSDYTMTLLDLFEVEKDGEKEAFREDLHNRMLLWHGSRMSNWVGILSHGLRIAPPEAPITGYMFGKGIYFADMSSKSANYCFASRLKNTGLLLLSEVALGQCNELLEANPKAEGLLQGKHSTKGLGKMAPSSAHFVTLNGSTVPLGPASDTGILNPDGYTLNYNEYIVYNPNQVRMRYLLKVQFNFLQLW", "experiment": "PARP2 protein expression level in MDA-MB-436 cells", "type": "cell-based", "protocol": "MDA-MB-436 cells were placed in a complete L-15 medium (supplemented with 15% FBS; 10 μg/mL Insulin; 16 μg/mL Glutathione and 1% penicillin-streptomycin solution), and cultured at 37° C. under CO2-free conditions. The cells in the logarithmic growth phase were collected, the cell density was adjusted to 2×10^5 cells/well with the culture medium, and the cells were added to a 6-well cell culture plate at a volume of 1 mL/well and cultured overnight. On day 2, the compound to be tested was prepared to 2-fold the final concentration, 1 mL of the compounds at different concentrations were added to administration wells, a medium containing 0.2% DMSO was added to control wells, and the plate was incubated for 24 hours at 37° C. […] The supernatant was collected and the protein content was determined using the BCA method. The protein sample to be tested was diluted to 2 mg/mL, PARP2 was detected using a fully automated protein expression quantitative analyzer (ProteinSimple), and the internal reference protein was 3-actin (both antibodies were from CST). The software (Compass for SW) of the fully automated protein expression quantitative analyzer was used to process the raw data and calculate the peak area and the PARP2 expression rate relative to the control group. DC50 values were calculated using a four-parameter non-linear fitting model in Graphpad 8.3.0 software."}, "PARP2 [2]": {"molecular_target": "T1, PARP2", "experiment": "PARP2 enzyme activity inhibition (chemiluminescence kit)", "type": "biochemical", "protocol": "as §1, §2"}, "[3]": {"experiment": "Pharmacokinetic test in rats", "type": "in vivo, SD rats", "protocol": "7.1 Experimental animals: male SD rats, about 220 g, 6-8 weeks old, 6 rats/compound, purchased from Chengdu Ddossy Experimental Animals Co., Ltd.\n7.2 Experimental design: on the day of the experiment, 12 SD rats were randomly grouped according to their body weights. The animals were fasted with water available for 12 to 14 h one day before the administration, and were fed 4 h after the administration.\n(§3) Before and after the administration, 0.15 mL of blood was taken from the orbit of the animals under isoflurane anesthesia and placed in an EDTAK2 centrifuge tube. The blood was centrifuged at 5000 rpm and 4° C. for 10 min to collect plasma. The blood collection time points for the intravenous administration group and intragastric administration group were: 0, 5 min, 15 min, 30 min, 1 h, 2 h, 4 h, 6 h, 8 h, and 24 h. Before analysis and detection, all samples were stored at −80° C. The samples were analyzed quantitatively by LC-MS/MS."}, "[4]": {"experiment": "Pharmacokinetic test in mice", "type": "in vivo, ICR mice", "protocol": "8.1 Experimental animals: male ICR mice, 20 to 25 g, 18 mice/compound, purchased from Chengdu Ddossy Experimental Animals Co., Ltd.\n8.2 Experimental design: on the day of the experiment, 36 ICR mice were randomly grouped according to their body weights. The animals were fasted with water available for 12 to 14 h one day before the administration, and were fed 4 h after the administration.\nas §3, with “0.06” for “0.15”, “intravenous” for “intravenous administration”, “0 min,” for “0,”"}, "[5]": {"details": "male, SD, rat, iv, i.v. 2.5 mg/kg, plasma"}, "[6]": {"details": "male, ICR, mouse, iv, i.v. 2.5 mg/kg, plasma"}}, "data": [{"smiles": "CCc1cc2ncc(CN3CCN(c4ccc(C(=O)NC5CCN(c6ccc7c(c6)C(=O)N(C6CCC(=O)NC6=O)C7=O)CC5)nc4)CC3)cc2[nH]c1=O", "note": "(stereo not shown) [Compound 10, N-(1-(2-(2,6-dioxopiperidin-3-yl)-1,3-dioxoisoindolin-5-yl)piperidin-4-yl)-5-(4-((7-ethyl-6-oxo-5,6-dihydro-1,5-naphthyridin-3-yl)methyl)piperazin-1-yl)picolinamide]", "values": [{"measurement": "IC50", "setting": "PARP7", "result": 91, "unit": "nM"}, {"measurement": "PARP1 degradation selectivity over PARP2", "setting": "PARP2 [1]", "result": "good PARP1 degradation selectivity"}, {"measurement": "DC50", "setting": "PARP2 [1]; 24 hours", "result": "> 10000", "unit": "nM"}, {"measurement": "IC50", "setting": "PARP2 [2]", "result": 41, "unit": "nM"}, {"measurement": "pharmacokinetic characteristics", "setting": "[3]", "result": "good pharmacokinetic characteristics"}, {"measurement": "F", "setting": "[3]; i.g. 10 mg/kg", "result": 34.3, "unit": "%"}, {"measurement": "AUC(0-t)", "setting": "[3]; [5]", "result": 31200, "unit": "ng·h/mL"}, {"measurement": "clearance", "setting": "[3]; [5]", "result": 1.42, "unit": "mL/min/kg"}, {"measurement": "Vd", "setting": "[3]; male, SD, rat, iv, i.v. 2.5 mg/kg, plasma, read-out: Vdss", "result": 0.405, "unit": "L/kg"}, {"measurement": "AUC(0-t)", "setting": "[3]; male, SD, rat, po, i.g. 10 mg/kg, plasma", "result": 42900, "unit": "ng·h/mL"}, {"measurement": "pharmacokinetic characteristics", "setting": "[4]", "result": "good pharmacokinetic characteristics"}, {"measurement": "F", "setting": "[4]; i.g. 10 mg/kg", "result": 84.6, "unit": "%"}, {"measurement": "AUC(0-t)", "setting": "[4]; [6]", "result": 20600, "unit": "ng·h/mL"}, {"measurement": "clearance", "setting": "[4]; [6]", "result": 2.02, "unit": "mL/min/kg"}, {"measurement": "Vd", "setting": "[4]; male, ICR, mouse, iv, i.v. 2.5 mg/kg, plasma, read-out: Vdss", "result": 0.358, "unit": "L/kg"}, {"measurement": "AUC(0-t)", "setting": "[4]; male, ICR, mouse, po, i.g. 10 mg/kg, plasma", "result": 69800, "unit": "ng·h/mL"}]}]}
